Measurements taken from patent publication US5091191A (Yoshitomi Pharmaceutical Industries, Ltd., priority 1988, dated 1992).

Key:
[1] = Solubility of the Compound at different pH values (FIG. 1); format: physicochemical; conditions: weakly acid to neutral, about pH 3 to about pH 7
Description: FIG. 1 is a graph showing the solubility of the Compound at different ph valves. FIGS. 2, 3 and 4 are the graphs showing the dissolution test results of the Compound and the tablets of Reference Example 1, the fine granules of Example 1 and the tablets of Example 2, respectively.

[2] = Behaviour of finely-powdered Compound in weakly acid solution; format: physicochemical

## Cc1ccc(-n2ccnc2)cc1C(O)c1c(C)cc(C(=O)[O-])cc1C.[Na+] (stereo not drawn)
[1]
  solubility: lowered under weakly acid to neutral conditions
[2]; added to a weakly acid solution
  conversion to corresponding free acid: the corresponding free acid was produced through chemical reaction
[2]; weakly acid solution
  dissolution-improving effect of finely-powdering: there was not found any dissolution-improving effect
